Reference: patent publication US20040024024A1, “Aromatic sulfone hydroxamates and their use as protease inhibitors” (priority 2001, published 2004)

Columns and labels:
Human recombinant MMP-2 = molecular target: T1, Human recombinant MMP-2 (Homo sapiens, UniProt P08253); experiment: In vitro MMP inhibition, IC50 determination (fluorogenic substrate I); assay type: biochemical
T1 construct: made in house; host or cells: MMP-2-transfected p2AHT2 cells
T1 sequence (P08253 110-660): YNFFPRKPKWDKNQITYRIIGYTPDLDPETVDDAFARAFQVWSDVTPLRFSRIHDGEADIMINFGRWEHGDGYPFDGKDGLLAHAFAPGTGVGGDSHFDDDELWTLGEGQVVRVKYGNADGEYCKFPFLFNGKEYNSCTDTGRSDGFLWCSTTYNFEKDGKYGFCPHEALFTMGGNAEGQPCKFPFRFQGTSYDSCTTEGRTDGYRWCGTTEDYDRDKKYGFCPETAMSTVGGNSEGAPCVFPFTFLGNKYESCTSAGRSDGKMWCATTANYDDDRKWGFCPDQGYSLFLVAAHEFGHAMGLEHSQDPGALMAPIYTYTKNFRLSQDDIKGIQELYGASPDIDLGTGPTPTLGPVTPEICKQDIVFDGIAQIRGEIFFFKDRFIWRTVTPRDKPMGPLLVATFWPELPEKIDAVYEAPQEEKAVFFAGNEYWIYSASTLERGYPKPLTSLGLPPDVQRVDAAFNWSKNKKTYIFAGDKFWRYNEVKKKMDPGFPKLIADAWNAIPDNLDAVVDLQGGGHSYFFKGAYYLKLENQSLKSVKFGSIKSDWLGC
Description: (§1) Several hydroxamates and salts thereof were analyzed in in vitro assays to determine their ability to inhibit the MMP cleavage of peptide substrates. Inhibition (Ki) and IC50 constants were calculated from the assayed hydroxamate-MMP interactions.
(§2) Human recombinant MMP-1, MMP-2, MMP-9, MMP-13, and MMP-14 were used in this assay. All enzymes were prepared in Assignee's laboratories following usual laboratory procedures. Protocols for the preparation and use of these enzymes are available in the scientific literature. See, e.g., Enzyme Nomenclature (Academic Press, San Diego, Calif., 1992) (and the citations therein). See also, Frije et al., J. Biol. Chem., 26(24), 16766-73 (1994).
The MMP-2 proenzyme was purified by gelatin Sepharose chromatography from MMP-2-transfected p2AHT2 cells provided by Dr. Gregory Goldberg of Washington University (St. Louis, Mo.).
(§3) All MMPs were activated using 4-aminophenylmercuric acetate (“APMA”, Sigma Chemical, St. Louis, Mo.) or trypsin. MMP-9 also was activated using human recombinant MMP-3 (purified in Assignee's laboratory following standard cloning and purification techniques).
(§4) Two fluorogenic, methoxycoumarin-containing polypeptide substrates were used in the MMP inhibition assays:
(§5) MCA-ProLeuGlyLeuDpaAlaArgNH2 (I)
(§6) Here, “Dpa” is 3-(2,4-dinitrophenyl)-L-2,3-diaminopropionyl group, and “MCA” is 7-methoxycoumarin-4-yl acetyl. Substrate (I) was purchased from Baychem (Redwood City, Calif.), and substrate II was prepared Assignee's laboratory. Substrate I was used in the IC50 determination assays, while substrate II was used in the Ki determination assays. In the absence of MMP inhibitory activity, either substrate is cleaved at the Gly-Leu peptide bond. This cleavage separates the highly fluorogenic peptide from the 2,4-dinitrophenyl quencher, thus resulting in increase of fluorescent intensity.
(§7) The stock solutions of the assayed hydroxamates (or salts thereof) were prepared in 1% dimethyl sulfoxide (DMSO). These stock solutions were diluted in Buffer A (100 mM Tris-HCl, 100 mM NaCl, 10 mM CaCl2, 0.05% polyoxyethylene 23 lauryl ether, pH 7.5) to obtain solutions with different hydroxamate concentrations, i.e., assay solutions with different concentrations of the assayed MMP inhibitory compound. The experiment controls contained the same amount of Buffer A/DMSO as the assayed sample, but contained no hydroxamate (or salt thereof).
(§8) The assays from which the IC50 determinations were made were performed as follows. The MMPs were activated with either trypsin or APMA (4-aminophenylmercuric acetate, Sigma Chemical, St. Louis, Mo.). The assayed hydroxamate samples were, incubated in Microfluorrm White Plates (Dynatech, Chantilly, VA) and analyzed on a Perkin Elmer L550 plate reader (Norwalk, Conn.). The excitation wavelength was 328 nm, and the emission wavelength—415 nm. All samples (assayed hydroxamates and controls) were incubated in separate plates at room temperature in the presence of 4 μM of MMP substrate (I). As stated in the previous paragraph, samples containing varying concentrations of the same assayed hydroxamate were prepared. Inhibition was measured as a reduction in fluorescent intensity as a function of MMP inhibitor concentration.

Human recombinant MMP-13 = molecular target: T2, Human recombinant MMP-13 (Homo sapiens, UniProt P45452); experiment: as above; assay type: biochemical
T2 construct: made in house; host or cells: baculovirus / insect cells
Description: as §1, §2
The expressed proenzyme was first purified over a heparin agarose column, and then over a chelating zinc chloride column. The proenzyme was then activated by APMA for use in the assay. Further details on baculovirus expression systems may be found in, for example, Luckow et al., J. Virol., 67, 4566-79 (1993). See also, O'Reilly et al, Baculovirus Expression Vectors: A Laboratory Manual (W. H. Freeman and Co., New York, N.Y., 1992). See also, King et al., The Baculovirus Expression System: A Laboratory Guide (Chapman & Hall, London, England, 1992).
as §3, §4, §5, §6, §7, §8

[1] = substrate (I) 4 μM, room temperature, values not in parenthesis

Structure (SMILES) | IC50 (Human recombinant MMP-2; [1]) | IC50 (Human recombinant MMP-13; [1]) | IC50 (Human recombinant MMP-2; value outside parenthesis) | IC50 (Human recombinant MMP-13; value outside parenthesis) | IC50 (Human recombinant MMP-13; value outside parentheses (Ki in parenthesis))
COc1ccc(C(=O)NCCCOc2ccc(S(=O)(=O)C3(C(=O)NO)CCOCC3)cc2)cc1 [Example 17, tetrahydro-N-hydroxy-4-[[4-[3-[(4-methoxybenzoyl)amino]propoxy]phenyl]sulfonyl]-2H-pyran-4-carboxamide] | 0.55 µM | 0.0016 µM | – | – | –
O=C(NO)C1(S(=O)(=O)c2ccc(OCCCc3ccc4ccccc4c3)cc2)CCOCC1 [Example 36] | 0.095 µM | 0.0024 µM | – | – | –
CC(C)c1cccc(CCCOc2ccc(S(=O)(=O)C3(C(=O)NO)CCOCC3)cc2)c1 [Example 94] | – | – | 0.0178 µM | 0.0037 µM | –
CC(C)CCc1cccc(CCCOc2ccc(S(=O)(=O)C3(C(=O)NO)CCOCC3)cc2)c1 [Example 96] | – | – | 0.0391 µM | 0.0153 µM | –
COCCN1CCC(C(=O)NO)(S(=O)(=O)c2ccc(OCCCc3nc(-c4ccc(CCC(C)C)cc4C)no3)cc2)CC1 [Example 100] | – | – | 1.69 µM | 0.153 µM | –
O=C(NCCCOc1ccc(S(=O)(=O)C2(C(=O)NO)CCOCC2)cc1)c1cc2ccccc2o1 [Example 101] | – | – | 0.0182 µM | 0.0002 µM | –
COCCN1CCC(C(=O)NO)(S(=O)(=O)c2ccc(OCCCn3nnc(-c4ccc(S(C)(=O)=O)cc4)n3)cc2)CC1 [Example 104] | – | – | 0.0442 µM | 0.0008 µM | –
O=C(NO)C1(S(=O)(=O)c2ccc(OCCCc3csc(-c4ccccc4)n3)cc2)CCOCC1 [Example 107] | – | – | 0.034 µM | 0.0055 µM | –
COCCN1CCC(C(=O)NO)(S(=O)(=O)c2ccc(OCCCN3C(=O)[C@@H](C)N(c4ccccc4)C3=O)cc2)CC1 [Example 108] | – | – | 0.434 µM | 0.02 µM | –
NC(=O)c1cccc(-c2noc(CCCOc3ccc(S(=O)(=O)C4(C(=O)NO)CCN(C5CC5)CC4)cc3)n2)c1 [Example 131] | – | – | 0.108 µM | 0.0045 µM | –
O=C(NO)C1(S(=O)(=O)c2ccc(OCc3nc(-c4ccc(OC(F)(F)F)cc4)no3)cc2)CCOCC1 [Example 132] | – | – | 0.0617 µM | 0.0037 µM | –
O=C1CN(c2ccc(OC(F)(F)F)cc2)C(=O)N1CCCOc1ccc(S(=O)(=O)C2(C(=O)NO)CCN(C3CC3)CC2)cc1 [Example 133] | – | – | 0.0844 µM | 0.0043 µM | –
C[C@@H]1C(=O)N(CCCOc2ccc(S(=O)(=O)C3(C(=O)NO)CCOCC3)cc2)C(=O)N1c1ccc(OC(F)(F)F)cc1 [Example 136] | – | – | 0.229 µM | 0.0044 µM | –
COCCN1CCC(C(=O)NO)(S(=O)(=O)c2ccc(OCCCn3nnc(-c4cc(F)ccc4C)n3)cc2)CC1 [Example 141] | – | – | 0.0325 µM | 0.0036 µM | –
COCCN1CCC(C(=O)NO)(S(=O)(=O)c2ccc(OCCCn3nnc(-c4cccs4)n3)cc2)CC1 [Example 143] | – | – | 0.0049 µM | 0.0014 µM | –
COCCN1CCC(C(=O)NO)(S(=O)(=O)c2ccc(OCCCn3nnc(-c4ccc5c(c4)OCO5)n3)cc2)CC1 [Example 146] | – | – | 0.0111 µM | 0.0004 µM | –
COCCN1CCC(C(=O)NO)(S(=O)(=O)c2ccc(OCCCn3nnc(-c4ccccc4C)n3)cc2)CC1 [Example 151] | – | – | 0.0384 µM | 0.0026 µM | –

Structure (SMILES) | IC50 (Human recombinant MMP-2; [1]) | IC50 (Human recombinant MMP-13; [1]) | IC50 (Human recombinant MMP-2; value outside parenthesis) | IC50 (Human recombinant MMP-13; value outside parenthesis) | IC50 (Human recombinant MMP-13; value outside parentheses (Ki in parenthesis))
O=C(NO)C1(S(=O)(=O)c2ccc(OCCCc3cccc(-c4ccccn4)c3)cc2)CCOCC1 [Example 153] | – | – | 0.192 µM | 0.0076 µM | –
CCOc1ccc(-c2nnn(CCCOc3ccc(S(=O)(=O)C4(C(=O)NO)CCN(CCOC)CC4)cc3)n2)cc1 [Example 156] | – | – | 0.0321 µM | 0.001 µM | –
O=C(NO)C1(S(=O)(=O)c2ccc(OCCCc3cccc(-c4cc(F)cc(F)c4)c3)cc2)CCOCC1 [Example 159] | – | – | 1.37 µM | 0.0244 µM | –
COc1ccc(C(=O)C(C#N)CCOc2ccc(S(=O)(=O)C3(C(=O)NO)CCOCC3)cc2)cc1 (centres unmarked) [Example 176] | – | – | 0.109 µM | 0.0078 µM | –
C[C@H]1C(=O)N(CCCOc2ccc(S(=O)(=O)C3(C(=O)NO)CCOCC3)cc2)C(=O)N1c1ccccc1 [Example 177] | – | – | 0.333 µM | 0.017 µM | –
CC(C)Cc1ccc(-c2nnc(CCCOc3ccc(S(=O)(=O)C4(C(=O)NO)CCOCC4)cc3)o2)cc1 [Example 179] | – | – | 0.247 µM | 0.0011 µM | –
COCCN1CCC(C(=O)NO)(S(=O)(=O)c2ccc(OCCCn3nnc(-c4ccccc4OC)n3)cc2)CC1 [Example 180] | – | – | 0.443 µM | 0.017 µM | –
CC(C)c1ccc(N2CCN(CCCOc3ccc(S(=O)(=O)C4(C(=O)NO)CCOCC4)cc3)C2=O)cc1 [Example 186] | – | – | 0.61 µM | 0.0135 µM | –
CCCCc1ccc(N2CCN(CCCOc3ccc(S(=O)(=O)C4(C(=O)NO)CCOCC4)cc3)C2=O)cc1 [Example 192] | – | – | 1.26 µM | 0.0154 µM | –
O=C1N(CCCOc2ccc(S(=O)(=O)C3(C(=O)NO)CCOCC3)cc2)CCN1c1ccccc1 [Example 196] | – | – | 0.0322 µM | 0.0114 µM | –
COCCN1CCC(C(=O)NO)(S(=O)(=O)c2ccc(OCCCn3nc(C(F)(F)F)cc3-c3ccc(OC)cc3)cc2)CC1 [Example 198] | – | – | 4.53 µM | 0.835 µM | –
COCCN1CCC(C(=O)NO)(S(=O)(=O)c2ccc(OCCCn3ncc(-c4ccc(OC)cc4)c3C(F)(F)F)cc2)CC1 [Example 202] | – | – | 1.6 µM | 0.0419 µM | –
COc1ccc(C(=O)N(C)CCCOc2ccc(S(=O)(=O)C3(C(=O)NO)CCOCC3)cc2)cc1 [Example 205] | – | – | 4.78 µM | 0.0176 µM | –
O=C(NO)C1(S(=O)(=O)c2ccc(OCCCc3nc(-c4cc(C(F)(F)F)cc(C(F)(F)F)c4)no3)cc2)CCOCC1 [Example 216] | – | – | 1.95 µM | 0.0512 µM | –
CC(=O)NC(C)(C)CCOc1ccc(S(=O)(=O)C2(C(=O)NO)CCN(C3CC3)CC2)cc1 [Example 221] | – | – | 8.8 µM | 0.244 µM | –
CS(=O)(=O)c1ccccc1S(=O)(=O)N1CC(Oc2ccc(S(=O)(=O)C3(C(=O)NO)CCOCC3)cc2)C1 [Example 483] | – | – | – | – | 0.029 µM
